Assay results taken from patent US20180284095A1, “BIOMARKERS ASSOCIATED WITH LSD1 INHIBITORS AND USES THEREOF” (Oryzon Genomics, S.A., priority 2015, published 2018).

Tests used:
[1] = tested on: C57BL/6 mice; assay: Experimental Autoimmune Encephalomyelitis (EAE) model, MOG35-55; format: in vivo, mouse
Experimental: In particular, the murine EAE model as described herein, using MOG35-55 and C57BL/6 mice strain, is considered a validated preclinical model of the chronic progressive form of MS.
To induce chronic EAE by active immunization, C57BL/6 mice were immunized s.c. with 100 μg of myelin oligodendrocyte glycoprotein MOG35-55 emulsified in complete Freund's adjuvant (CFA) containing 4 mg/ml Mycobacterium tuberculosis H37 RA. Mice also received i.p. injections of 200 ng of pertussis toxin on days 0 and 2.
Mice were scored daily for signs of EAE according to the following clinical scoring system: 0, no clinical signs; 0.5, partial loss of tail tonicity; 1, complete loss of tail tonicity; 2, flaccid tail and abnormal gait; 3, hind leg paralysis; 4, hind leg paralysis with hind body paresis; 5, hind and fore leg paralysis; and 6, death.

[2] = tested on: S100A9; assay: Illumina RNA sequencing, hippocampus of SAMP8 mice (Example 4); format: in vivo, mouse
Experimental: Illumina dye sequencing begins with the attachment of cDNA molecules to primers on a slide, followed by amplification of that DNA to produce local colonies. The four types (adenine, cytosine, guanine, and thymine) of reversible terminate bases are added, each fluorescently labeled with a different color and attached with a blocking group. The four bases then compete for binding sites on the template cDNA to be sequenced and non-incorporated molecules are washed away. After each synthesis, a laser is used to excite the dyes and a photograph of the incorporated base is taken. A chemical deblocking step is then used in the removal of the 3′ terminal blocking group and the dye in a single step. The process is repeated until the full cDNA molecule is sequenced.
Illumina RNA-Seq technology records the numerical frequency of sequences in a library population. 50 bp single reads with multiples of 30M single reads are guaranteed using Illumina sequencing technology. The RNA-Seq reads are aligned to the reference genome or reference transcriptome using Bowtie generating genome/transcriptome alignments. TopHat identifies the potential exon-exon splice junctions of the initial alignment. Then Cufflinks identifies and quantifies the transcripts from the preprocessed RNA-Seq alignment assembly. After this, Cuffmerge merges the identified transcript pieces to full length transcripts and annotates the transcripts based on the given annotations. Finally, merged transcripts from two or more samples/conditions are compared using Cuffdiff to determine the differential expression levels at transcript and gene level including a measure of significance between samples/conditions.
Differential gene expression. Operating on the RNA-Seq alignments and Cuffinks processing, Cuffdiff tracks the mapped reads and determines the fragment per kilo base per million mapped reads (FPKM) for each transcript in all the samples. Primary transcripts and gene FPKMs are then computed by adding up the FPKMs of each primary transcript group or gene group. […]

[3] = tested on: SAMP8 mice; assay: Novel Object Recognition Test (NORT) in SAMP8 mice; format: in vivo, mouse
Source text: The Senescence Accelerated Mouse Prone 8 (SAMP8) strain is a non-transgenic model for neurodegeneration reminiscent of Alzheimer's disease (T Takeda, Neurobiol Aging 1999, 20(2):105-10). Memory deficits appear around 5 months of age in SAMP8 mice and can be reliably assessed using the Novel Object Recognition Test (NORT).
Males and females were separated in two different cohorts and all treatments started at 5 months of age. […] Based on the results obtained in the first experiment, doses were adjusted in a second experiment using male mice.
The dose was calculated according to the animal water consumption average par cage and adjusted weekly. The test compound (or vehicle) was available for 5 days followed by a 2 day clearance in a weekly period.
NORT is used to assess animal's behavior when it is exposed to a novel and a familiar object (M Antunes and G Biala, Cogn Process. 2012, 13(2): 93-110). […]
The NORT test was performed after 2 (n=16/group) and repeated at 4 (n=10/group) months of treatment (between […] and 6:30 pm). […] During this second trial, objects A and B were placed in the maze, and the time that the animal explored the new object (tn) and the old object (to) were video-recorded. […]
Statistical analysis was performed using the GraphPad Prism 6.0 software package. NORT data from SAMP8 mice was analyzed by one-way ANOVA with treatment as the main factor. […]

[4] = Oral availability and blood-brain barrier crossing (statement)

Which “development of EAE, disease incidence and severity measured by daily clinical score” value ([1]; 1 or 3 mg/kg oral once a day, days 12-16 and 19-23 postimmunization) does the source give for “(−) 5-((((trans)-2-(4-(benzyloxy)phenyl)cyclopropyl)amino)methyl)-1,3,4-oxadiazol-2-amine [Compound 1]” here?
The value was “greatly inhibited the development of EAE”.

What about the “mice almost completely recovered” value ([1]; 40 days after disease onset) of the same substance?
Its value is 30%.

And the “duration of protective effect” value ([1]; after cessation of the treatment)?
The value was “maintained for a long-period of time after cessation of the treatment”.

What about the “mice displaying mild symptoms” value ([1]; group treated with 1 or 3 mg/kg oral) of the same substance?
Its value is 40-70%.

And the “Female FPKM S100A9” value ([2]; hippocampus pool, SAMP8 females, 0.96 mg/kg/day, 4 months)?
Its value is 0.61 FPKM.

And the “Male FPKM S100A9” value ([2]; hippocampus pool, SAMP8 males, 0.32 mg/kg/day, 4 months)?
The value was 1.03 FPKM.

And the “S100A9 expression (RNA-seq)” value ([2]; hippocampus, SAMP8, vs vehicle-treated animals of the same sex)?
Its value is “down-regulated S100A9 expression”.

What about the “memory loss as assessed by NORT” value ([3]; SAMP8 males and females, after 2 m and 4 m of treatment) of the same substance?
The value was “completely prevents memory loss”.

What about the “memory deficits (NORT), medium- and long-term memory” value ([3]; SAMP8 males, 0.32 and 0.96 mg/kg/day in drinking water, 2 and 4 months) of the same substance?
Its value is “rescued the memory deficits”.

What about the blood-brain barrier crossing [4] of the same substance?
The blood-brain barrier crossing was “cross the blood-brain barrier”.

What about the oral availability [4] of the same substance?
Its oral availability is “orally available”.
